Some results are limits rather than exact numbers.

The first experiment addresses SARS-CoV-2 Papain-Like Protease (PLpro) (Severe acute respiratory syndrome coronavirus 2 (2019-nCoV) (SARS-CoV-2), UniProt P0DTD1). In words: biochemical. The settings on record: PLpro enzymatic fluorescence assay; class symbols; read-out: PLpro IC50.
As to `Cc1ccc(OC[C@@H]2CCN2C)cc1C(=O)NC1(c2cc(-c3ccc(C(C)N4CCCC4)s3)cc3ncccc23)CC1` (stereo partly drawn) [Compound 780, 2-Methyl-5-(((S)-1-methylazetidin-2-yl)methoxy)-N-(1-(7-(5-(1-(pyrrolidin-1-yl)ethyl)thiophen-2-yl)quinolin-5-yl)cyclopropyl)benzamide], the IC50 is under 100 nM.
With `Cc1ccc(OC[C@@H]2CCN2C)cc1C(=O)NC1(c2cc(N(C)CC(F)(F)F)cc3ncccc23)CC1` [Compound 781, (S)-2-Methyl-N-(1-(7-(methyl(2,2,2-trifluoroethyl)amino)quinolin-5-yl)cyclopropyl)-5-((1-methylazetidin-2-yl)methoxy)benzamide], the IC50 is under 100 nM.
Turning to `[2H]C([2H])([2H])N1CC[C@H]1COc1ccc(C)c(C(=O)NC2(c3cc(-c4cnc(C)o4)cc4ncccc34)CC2)c1` [Compound 782, (S)-2-Methyl-5-((1-(methyl-d3)azetidin-2-yl)methoxy)-N-(1-(7-(2-methyloxazol-5-yl)quinolin-5-yl)cyclopropyl)benzamide], the IC50 is under 100 nM.
`COc1cc(C2(NC(=O)c3cc(O[C@H]4CC[C@@H]5CN(C)CCN5C4)ccc3C)CC2)c2cccnc2c1` [Compound 783]: the IC50 is under 100 nM.
Still for that read-out and setting: in the case of `COc1cc(C2(NC(=O)c3cc(OC[C@@H]4CC[C@@H]5CN(C)CCN54)ccc3C)CC2)c2cccnc2c1` [Compound 784] it was under 100 nM; in that of `C=Cc1cc2c(c(C3(NC(=O)c4cc(OC[C@@H]5CCN5C)ccc4C)CC3)c1)CCCN2` [Compound 785, (S)-2-Methyl-5-((1-methylazetidin-2-yl)methoxy)-N-(1-(7-vinyl-1,2,3,4-tetrahydroquinolin-5-yl)cyclopropyl)benzamide], under 100 nM; in that of `Cc1ccc(OC[C@@H]2CCN2C)cc1C(=O)NC1(c2cc(OCC(C)(C)C)cc3ncccc23)CC1` [Compound 787, (S)-2-Methyl-5-((1-methylazetidin-2-yl)methoxy)-N-(1-(7-(neopentyloxy)quinolin-5-yl)cyclopropyl)benzamide], under 100 nM.
Same read-out and setting: in the case of `[2H]C([2H])([2H])N1CC[C@H]1COc1ccc(C)c(C(=O)NC2(c3cc(C=C)cc4ncccc34)CC2)c1` [Compound 788, (S)-2-Methyl-5-((1-(methyl-d3)azetidin-2-yl)methoxy)-N-(1-(7-vinylquinolin-5-yl)cyclopropyl)benzamide] it was under 100 nM; in that of `COc1cc(C2(NC(=O)c3cc(OC[C@@H]4CC[C@@H]5CNCCN54)ccc3C)CC2)c2cccnc2c1` [Compound 789], under 100 nM; in that of `COc1cc(C2(NC(=O)c3cc(O[C@H]4CC[C@@H]5CNCCN5C4)ccc3C)CC2)c2cccnc2c1` [Compound 790], under 100 nM.
Same read-out and setting: under `COc1cc(C2(NC(=O)c3cc(OC[C@@H]4CCN4C)ccc3F)CC2)c2ccc(C)nc2c1` [Compound 791, (S)-2-Fluoro-N-(1-(7-methoxy-2-methylquinolin-5-yl)cyclopropyl)-5-((1-methylazetidin-2-yl)methoxy)benzamide] stands 100 to 1000 nM; under `Cc1ccc(OC[C@@H]2CCN2C)cc1C(=O)NC1(c2cc(-c3ccc(CN4CCOCC4)s3)cc3ncccc23)CC1` [Compound 793, (S)-2-Methyl-5-((1-methylazetidin-2-yl)methoxy)-N-(1-(7-(5-(morpholinomethyl)thiophen-2-yl)quinolin-5-yl)cyclopropyl)benzamide], under 100 nM.
Consider `[2H]C1([2H])C([2H])([2H])C1(NC(=O)c1cc(OC[C@@H]2CCN2C)ccc1C)c1cc(OC)cc2ncccc12` [Compound 794, (S)-N-(1-(7-Methoxyquinolin-5-yl)cyclopropyl-2,2,3,3-d4)-2-methyl-5-((1-methylazetidin-2-yl)methoxy)benzamide], for which the IC50 was under 100 nM.
On to `Cc1ccc(OC[C@@H]2CCN2C)cc1C(=O)NC1(c2cc(OCC(F)(F)F)cc3ncccc23)CC1` [Compound 795, (S)-2-Methyl-5-((1-methylazetidin-2-yl)methoxy)-N-(1-(7-(2,2,2-trifluoroethoxy)quinolin-5-yl)cyclopropyl)benzamide], for which the IC50 was under 100 nM.
The same measure, in the same setting: in the case of `C=Cc1cc2c(c(C3(NC(=O)c4cc(OC[C@@H]5CCN5C)ccc4C)CC3)c1)CCCN2C` [Compound 796, (S)-2-Methyl-N-(1-(1-methyl-7-vinyl-1,2,3,4-tetrahydroquinolin-5-yl)cyclopropyl)-5-((1-methylazetidin-2-yl)methoxy)benzamide] it was under 100 nM; in that of `[2H]C([2H])(Oc1ccc(C)c(C(=O)NC2(c3cc(OC)cc4ncccc34)CC2)c1)[C@@H]1CCN1C` [Compound 797, (S)-N-(1-(7-Methoxyquinolin-5-yl)cyclopropyl)-2-methyl-5-((1-methylazetidin-2-yl)methoxy-d2)benzamide], under 100 nM.
With `COc1cc(C2(NC(=O)c3cc(OCC4Cc5ccccc5CN4C)ccc3C)CC2)c2cccnc2c1` (centres unmarked) [Compound 799, N-(1-(7-Methoxyquinolin-5-yl)cyclopropyl)-2-methyl-5-((2-methyl-1,2,3,4-tetrahydroisoquinolin-3-yl)methoxy)benzamide], the concentration for half-maximal inhibition (IC50) is under 100 nM.
For the compound `COc1cc(C2(NC(=O)c3cc(OCC4c5ccccc5CCN4C)ccc3C)CC2)c2cccnc2c1` (centres unmarked) [Compound 801, N-(1-(7-Methoxyquinolin-5-yl)cyclopropyl)-2-methyl-5-((2-methyl-1,2,3,4-tetrahydroisoquinolin-1-yl)methoxy)benzamide], the half-maximal inhibitory concentration (IC50) was under 100 nM.
Regarding `Cc1cc(C2(NC(=O)c3cc(OC[C@@H]4CCN4C)ccc3C)CC2)c2ccc(C)nc2c1` [Compound 802, (S)-N-(1-(2,7-Dimethylquinolin-5-yl)cyclopropyl)-2-methyl-5-((1-methylazetidin-2-yl)methoxy)benzamide], the IC50 is under 100 nM.
The same measure, in the same setting: in the case of `Cc1ccc(OC[C@@H]2CCN2C)cc1C(=O)NC1(c2cc(C#CC(F)(F)F)cc3ncccc23)CC1` [Compound 803, (S)-2-Methyl-5-((1-methylazetidin-2-yl)methoxy)-N-(1-(7-(3,3,3-trifluoroprop-1-yn-1-yl)quinolin-5-yl)cyclopropyl)benzamide] it was under 100 nM.
On to `[2H]C1([2H])C([2H])([2H])C1(NC(=O)c1cc(OC[C@@H]2CCN2C)ccc1C)c1cc(OC)cc2nc(C)ccc12` [Compound 804, (S)—N-(1-(7-Methoxy-2-methylquinolin-5-yl)cyclopropyl-2,2,3,3-d)-2-methyl-5-((1-methylazetidin-2-yl)methoxy)benzamide], for which the IC50 was under 100 nM.

Still in this experiment, the particulars now being: SARS-CoV-2 PLpro enzymatic fluorescence assay; read-out: PLpro IC50.
For `Cc1ccc(OC[C@@H]2CCN2C)cc1C(=O)NC1(c2cc(NS(C)(=O)=O)cc3ncccc23)CC1` [Compound 786, (S)-2-Methyl-5-((1-methylazetidin-2-yl)methoxy)-N-(1-(7-(methylsulfonamido)quinolin-5-yl)cyclopropyl)benzamide], the IC50 was under 100 nM.
Turning to `C=Cc1cc(C2(NC(=O)c3cc(OC[C@@H]4CCN4C)c(F)cc3C)CC2)c2cccnc2c1` [Compound 800, (S)-4-Fluoro-2-methyl-5-((1-methylazetidin-2-yl)methoxy)-N-(1-(7-vinylquinolin-5-yl)cyclopropyl)benzamide], the IC50 is under 100 nM.

A word on the IC50: it is the point on the concentration scale where inhibition reaches its midpoint.
